A value given as a limit tells only on which side of the number the result lay.

For the assay, the system named is monocistronic NK5.1 HCV replicon in Huh7 cells. The assay is described as follows: HCV replicon assay, monocistronic replicon cell line. The format is cell-based, hepatitis C virus. The settings on record: Hepatitis C virus, Huh-7, 72 h; Table 1; monocistronic replicon in Huh7 cells, 3 days incubation, HCV RNA/GAPDH RNA by TaqMan RT-PCR; read-out: Mono EC50 Median. The source says: HCV Replicon Assays (Replicon EC50 (μM))
HCV replication can be measured by a replicon assay such as described by Vrolijk et al, J. Virol. Methods 110:201(2003), which is hereby incorporated in its entirety by reference. The method was implemented as follows.
Monocistronic Replicon Cell Line:
Human hepatocyte Huh7 cells containing the monocistronic NK5.1 replicon were obtained from Ralf Bartenschlager at the University of Mainz, Germany. These cells were maintained under hygromycin selection and passaged when 80-90% confluent.
This cell line contains an autonomously replicating RNA element (replicon) incorporating the non-structural HCV elements necessary for replication, and upon which the survival of the replicon in the cell depends. This replicon contains a single internal ribosome entry site (HCV IRES). Inhibition of any of the critical HCV finctions by a compound leads to loss of the replicon as measured by HCV replicon RNA copy number reduction. The amount of HCV RNA present following a standard incubation with a compound is a measure of the anti-HCV activity of the compound. The assay was conducted by preparing sufficient 96-well plates containing these cells, wherein cells are seeded at 6000 cells/well in a 96-well plate, in 200 μl of final media volume. Cells were then incubated for 24 hours at 37 C., 5% CO2, and 95% humidity before compound was added. Six point half-log concentration response assays were conducted to determine potency/EC50 of Formula I compounds to inhibit HCV replicon replication. The final percent DMSO acceptable in this assay system is 0.6%. Compounds were diluted in media in an appropriate format and 5 μl of each drug dilution is added to each well. Cells were then incubated with compounds for 3 days at 37 C., 5% CO2, and 95% humidity. Following the three day incubation period, plates were washed twice with phosphate buffered saline to remove media and cells were lysed with Qiagen extraction buffer. RNA was extracted and isolated with the Qiagen RNAeasy kit according to the manufacturer's protocol (Qiagen). TaqMan One-Step RT-PCR was used in conjunction with an ABI 7700 Sequence Detector (Applied Biosystems) for the quantitation and analysis of HCV replicon RNA copy number. A GAPDH probe was used for internal normalization. The ratio of HCV RNA to cellular GAPDH RNA was determined and compared to the DMSO-only treated control, and the ratio of HCV RNA/GAPDH RNA was used for an EC50 determination and as a measure of specificity for inhibition of the HCV replicon.
In general terms: A replicon is a self-replicating genome or part of one, used to study replication in cells.

Usually EC50 stands for the concentration that produces a half-maximal response. For `Oc1ccccc1-c1ccnn1-c1ccccn1` [Compound 44, 2-(2-Pyridin-2-yl-2H-pyrazol-3-yl)-phenol], the EC50 is over 32 µM. In the case of `COc1ccc(-c2ccn(-c3ncccc3[N+](=O)[O-])n2)c(F)c1` [Compound 45, 2-[3-(2-Fluoro-4-methoxy-phenyl)-pyrazol-1-yl]-3-nitro-pyridine] it was 5.8 µM; in that of `COc1ccc(-c2ccnn2-c2ncccc2[N+](=O)[O-])c(F)c1` [Compound 46, 2-[5-(2-Fluoro-4-methoxy-phenyl)-pyrazol-1-yl]-3-nitro-pyridine], 6 µM. Next, `COc1ccc(-c2ccn(-c3ncc(C(F)(F)F)cc3Cl)n2)c(F)c1` [Compound 47, 3-Chloro-2-[3-(2-fluoro-4-methoxy-phenyl)-pyrazol-1-yl]-5-trifluoromethyl-pyridine]: 6 µM. Consider `COc1ccc(-c2ccnn2-c2ncc(C(F)(F)F)cc2Cl)c(F)c1` [Compound 48, 3-Chloro-2-[5-(2-fluoro-4-methoxy-phenyl)-pyrazol-1-yl]-5-trifluoromethyl-pyridine], for which the EC50 is 15 µM. In the case of `COc1ccc(-c2ccn(-c3c(Cl)cncc3Cl)n2)c(F)c1` [Compound 49, 3,5-Dichloro-4-[3-(2-fluoro-4-methoxy-phenyl)-pyrazol-1-yl]-pyridine] it was over 32 µM. Next, `COc1ccc(-c2ccnn2-c2c(Cl)cncc2Cl)c(F)c1` [Compound 50, 3,5-Dichloro-4-[5-(2-fluoro-4-methoxy-phenyl)-pyrazol-1-yl]-pyridine]: 5.8 µM; `COc1ccc(-c2ccn(-c3ncccc3C(F)(F)F)n2)c(F)c1` [Compound 51, 2-[3-(2-Fluoro-4-methoxy-phenyl)-pyrazol-1-yl]-3-trifluoromethyl-pyridine]: 20 µM; `COc1ccc(-c2ccnn2-c2ncccc2C(F)(F)F)c(F)c1` [Compound 52, 2-[5-(2-Fluoro-4-methoxy-phenyl)-pyrazol-1-yl]-3-trifluoromethyl-pyridine]: 2.1 µM. In the case of `COc1ccc(-c2ccn(-c3ccccn3)n2)c(F)c1` [Compound 53, 2-[3-(2-Fluoro-4-methoxy-phenyl)-pyrazol-1-yl]-pyridine] it was over 32 µM; in that of `COc1ccc(-c2ccnn2-c2ccccn2)c(F)c1` [Compound 54, 2-[5-(2-Fluoro-4-methoxy-phenyl)-pyrazol-1-yl]-pyridine], 2.2 µM. Turning to `CCCNC(=O)c1cc(-c2ccc(OC)cc2)nn1-c1ccc(Cl)cc1` [Compound 55, 2-(4-Chloro-phenyl)-5-(4-methoxy-phenyl)-2H-pyrazole-3-carboxylic acid propylamide], the EC50 was determined as 18 µM. Next, `CCOC(=O)c1cc(-c2ccc(OC)cc2)nn1-c1ncccc1C(F)(F)F` [Compound 56, 5-(4-Methoxy-phenyl)-2-(3-trifluoromethyl-pyridin-2-yl)-2H-pyrazole-3-carboxylic acid ethyl ester]: over 32 µM; `CCOC(=O)c1cc(-c2ccc(OC)cc2)n(-c2ncccc2C(F)(F)F)n1` [Compound 57, 5-(4-Methoxy-phenyl)-1-(3-trifluoromethyl-pyridin-2-yl)-1H-pyrazole-3-carboxylic acid ethyl ester]: over 32 µM. On to `COc1ccc(-c2cc(C(=O)O)nn2-c2ncccc2C(F)(F)F)cc1` [Compound 58], for which the EC50 is over 32 µM.

For `CCCNC(=O)c1cc(-c2ccc(OC)cc2)nn1-c1ncccc1C(F)(F)F` [Compound 59, 5-(4-Methoxy-phenyl)-2-(3-trifluoromethyl-pyridin-2-yl)-2H-pyrazole-3-carboxylic acid propylamide], the EC50 is over 32 µM. Next, `CCOC(=O)c1cc(-c2ccc(OC)cc2)nn1-c1ncccc1[N+](=O)[O-]` [Compound 60, 5-(4-Methoxy-phenyl)-2-(3-nitro-pyridin-2-yl)-2H-pyrazole-3-carboxylic acid ethyl ester]: over 32 µM.

Take `CCOC(=O)c1cc(-c2ccc(OC)cc2)n(-c2ncccc2[N+](=O)[O-])n1` [Compound 61, 5-(4-Methoxy-phenyl)-1-(3-nitro-pyridin-2-yl)-1H-pyrazole-3-carboxylic acid ethyl ester]: the EC50 stood at 19 µM.

As to `CCCNC(=O)c1cc(-c2ccc(OC)cc2)nn1-c1ccccn1` [Compound 62], the EC50 is over 32 µM. Turning to `COc1ccc(-c2cc(C(=O)O)n(-c3ccccn3)n2)cc1` [Compound 63], the EC50 is over 32 µM. Next, `CCOC(=O)c1cc(-c2ccc3ccccc3c2)nn1-c1ccccn1` [Compound 65, 5-Naphthalen-2-yl-2-pyridin-2-yl-2H-pyrazole-3-carboxylic acid ethyl ester]: over 32 µM; `CCOC(=O)c1cc(-c2ccc3ccccc3c2)n(-c2ccccn2)n1` [Compound 66, 5-Naphthalen-2-yl-1-pyridin-2-yl-1H-pyrazole-3-carboxylic acid ethyl ester]: 30 µM; `CCOC(=O)c1cc(-c2ccc3ccccc3c2)n(-c2ncccc2C(F)(F)F)n1` [Compound 67, 5-Naphthalen-2-yl-1-(3-trifluoromethyl-pyridin-2-yl)-1H-pyrazole-3-carboxylic acid ethyl ester]: 22 µM. In the case of `CCOC(=O)c1cc(-c2ccc3ccccc3c2)nn1-c1ncccc1C(F)(F)F` [Compound 68] it was 12 µM. Next, `CCOC(=O)c1cc(-c2ccc3ccccc3c2)n(-c2ncccc2[N+](=O)[O-])n1` [Compound 69]: 24 µM; `CCCNC(=O)c1cc(-c2ccc(OC)cc2)nn1-c1ncccc1[N+](=O)[O-]` [Compound 70, 5-(4-Methoxy-phenyl)-2-(3-nitro-pyridin-2-yl)-2H-pyrazole-3-carboxylic acid propylamide]: over 32 µM. With `CCCNC(=O)c1cc(-c2ccc3ccccc3c2)nn1-c1ccccn1` [Compound 71, 5-Naphthalen-2-yl-2-pyridin-2-yl-2H-pyrazole-3-carboxylic acid propylamide], the EC50 amounted to 21 µM. Next, `CCCNC(=O)c1cc(-c2ccc3ccccc3c2)n(-c2ccccn2)n1` [Compound 72, 5-Naphthalen-2-yl-1-pyridin-2-yl-1H-pyrazole-3-carboxylic acid propylamide]: over 32 µM; `O=C(O)c1cc(-c2ccc3ccccc3c2)nn1-c1ccccn1` [Compound 73, 5-Naphthalen-2-yl-2-pyridin-2-yl-2H-pyrazole-3-carboxylic acid]: over 32 µM; `O=C(O)c1cc(-c2ccc3ccccc3c2)n(-c2ccccn2)n1` [Compound 74, 5-Naphthalen-2-yl-1-pyridin-2-yl-1H-pyrazole-3-carboxylic acid]: over 32 µM.

As for `O=C(O)c1cc(-c2ccc3ccccc3c2)n(-c2ncccc2[N+](=O)[O-])n1` [Compound 75], the EC50 is over 32 µM. Next, `CCCNC(=O)c1cc(-c2ccc3ccccc3c2)nn1-c1ncccc1C(F)(F)F` [Compound 76, 5-Naphthalen-2-yl-2-(3-trifluoromethyl-pyridin-2-yl)-2H-pyrazole-3-carboxylic acid propylamide]: 9.4 µM. For the compound `CCCNC(=O)c1cc(-c2ccc3ccccc3c2)n(-c2ncccc2C(F)(F)F)n1` [Compound 77, 5-Naphthalen-2-yl-1-(3-trifluoromethyl-pyridin-2-yl)-1H-pyrazole-3-carboxylic acid propylamide], the EC50 was over 32 µM.
